Data reported in ChEMBL document CHEMBL1287706 (Bioorg Med Chem, 2010).
Where a name gives a salt, the structure may show the parent alone.

Key:
Transporter = Transporter (Rattus norvegicus, UniProt Q63380); assay: biochemical; assay type: tissue-based, Sprague-Dawley, Frontal cortex
Description: Displacement of [3H]nisoxetine from norepinephrine transporter in Sprague-Dawley rat frontal cortex after 1 hr by liquid scintillation counting

[1] = molecular target: Sodium-dependent dopamine transporter (Rattus norvegicus, UniProt P23977); assay: biochemical; assay type: tissue-based, Sprague-Dawley, Brain
[2] = molecular target: Sodium-dependent serotonin transporter (Rattus norvegicus, UniProt P31652); design: species or system Sprague-Dawley;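 note: radioligand competition using [3H]citalopram bound to serotonin transporter in Sprague-Dawley rat brain tissue, 1 h incubation, bound radioactivity quantified by liquid scintillation counting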
Chain of Sodium-dependent serotonin transporter (P31652 whole entry): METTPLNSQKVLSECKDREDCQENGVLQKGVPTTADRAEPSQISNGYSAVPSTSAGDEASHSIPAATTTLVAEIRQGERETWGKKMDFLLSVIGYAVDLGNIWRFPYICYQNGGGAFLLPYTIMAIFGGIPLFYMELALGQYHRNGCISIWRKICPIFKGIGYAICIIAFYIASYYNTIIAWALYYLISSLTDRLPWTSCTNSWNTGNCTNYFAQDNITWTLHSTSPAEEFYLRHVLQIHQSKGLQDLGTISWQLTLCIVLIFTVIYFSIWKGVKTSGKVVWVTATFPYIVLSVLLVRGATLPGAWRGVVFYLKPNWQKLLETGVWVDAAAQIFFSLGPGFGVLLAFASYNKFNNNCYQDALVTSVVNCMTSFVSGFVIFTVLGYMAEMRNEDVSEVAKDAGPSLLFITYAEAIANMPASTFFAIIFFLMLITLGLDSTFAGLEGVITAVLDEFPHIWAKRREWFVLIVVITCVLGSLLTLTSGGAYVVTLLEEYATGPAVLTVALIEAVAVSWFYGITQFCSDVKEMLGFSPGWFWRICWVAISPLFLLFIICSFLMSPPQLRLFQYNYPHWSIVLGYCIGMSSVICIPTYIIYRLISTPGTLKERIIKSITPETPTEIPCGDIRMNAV
Description: Displacement of [3H]citalopram from serotonin transporter in Sprague-Dawley rat brain after 1 hr by liquid scintillation counting

Chain of Transporter (Q63380 whole entry): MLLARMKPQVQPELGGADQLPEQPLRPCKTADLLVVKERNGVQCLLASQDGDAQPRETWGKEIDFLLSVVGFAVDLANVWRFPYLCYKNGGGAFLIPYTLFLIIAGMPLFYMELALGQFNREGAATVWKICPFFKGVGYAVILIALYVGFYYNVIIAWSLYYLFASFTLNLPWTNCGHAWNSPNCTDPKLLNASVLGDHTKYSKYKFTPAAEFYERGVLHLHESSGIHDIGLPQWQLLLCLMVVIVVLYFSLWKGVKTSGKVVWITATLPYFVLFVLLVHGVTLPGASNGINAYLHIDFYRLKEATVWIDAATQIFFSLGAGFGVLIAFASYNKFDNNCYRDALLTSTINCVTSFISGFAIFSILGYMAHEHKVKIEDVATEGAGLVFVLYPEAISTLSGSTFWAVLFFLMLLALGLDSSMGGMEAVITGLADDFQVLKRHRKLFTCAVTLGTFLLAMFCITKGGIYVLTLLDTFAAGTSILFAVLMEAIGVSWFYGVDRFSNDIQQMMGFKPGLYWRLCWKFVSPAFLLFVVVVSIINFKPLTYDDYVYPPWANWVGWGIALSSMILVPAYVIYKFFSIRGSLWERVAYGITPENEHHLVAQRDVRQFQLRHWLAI
Chain of Sodium-dependent dopamine transporter (P23977 whole entry): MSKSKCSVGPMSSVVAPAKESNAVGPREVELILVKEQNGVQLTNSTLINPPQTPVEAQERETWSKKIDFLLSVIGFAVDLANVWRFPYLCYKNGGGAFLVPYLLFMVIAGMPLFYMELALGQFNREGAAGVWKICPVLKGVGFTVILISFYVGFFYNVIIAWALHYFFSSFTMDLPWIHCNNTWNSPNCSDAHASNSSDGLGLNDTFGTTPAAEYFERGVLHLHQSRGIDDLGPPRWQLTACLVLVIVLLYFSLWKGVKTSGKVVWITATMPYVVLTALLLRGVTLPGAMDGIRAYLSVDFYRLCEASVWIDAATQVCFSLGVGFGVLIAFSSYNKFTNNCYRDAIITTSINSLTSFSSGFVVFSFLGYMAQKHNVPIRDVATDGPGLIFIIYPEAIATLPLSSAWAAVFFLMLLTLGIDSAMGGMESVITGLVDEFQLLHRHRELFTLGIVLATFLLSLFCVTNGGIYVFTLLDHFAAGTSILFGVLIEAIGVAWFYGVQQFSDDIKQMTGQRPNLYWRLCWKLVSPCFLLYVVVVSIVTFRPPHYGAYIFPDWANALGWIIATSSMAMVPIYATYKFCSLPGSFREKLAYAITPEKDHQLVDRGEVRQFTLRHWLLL

O=C(OCc1ccc(Cl)c(Cl)c1)C1(c2ccc(Cl)c(Cl)c2)CCNCC1
Ki (Transporter): 11900 nM
Ki [1]: 2890 nM
Ki [2]: 30.2 nM

O=C(OCc1ccc(Cl)c(Cl)c1)C1(c2ccc3ccccc3c2)CCNCC1
Ki (Transporter): 16600 nM
Ki [1]: 3210 nM
Ki [2]: 26.5 nM

O=C(OCc1ccccc1)C1(c2ccc(Cl)c(Cl)c2)CCNCC1
Ki [1]: 919 nM
Ki [2]: 9.2 nM

CN1CCC(C(=O)OCc2ccccc2)(c2ccc(-c3ccccc3)cc2)CC1
Ki [1]: 2310 nM
Ki [2]: 49.5 nM

O=C(OCc1ccc([N+](=O)[O-])cc1)C1(c2ccc(Cl)c(Cl)c2)CCNCC1
Ki (Transporter): 1440 nM
Ki [1]: 1300 nM
Ki [2]: 6.4 nM

COc1ccc(COC(=O)C2(c3ccc(I)cc3)CCNCC2)cc1
Ki (Transporter): 2730 nM
Ki [1]: 2920 nM
Ki [2]: 0.6 nM

COc1ccc(COC(=O)C2(c3ccc4ccccc4c3)CCNCC2)cc1
Ki (Transporter): 2350 nM
Ki [1]: 889 nM
Ki [2]: 2.9 nM

CCOC(=O)C1(c2ccc(Cl)c(Cl)c2)CCNCC1
Ki [1]: 321 nM
Ki [2]: 21.6 nM

COc1ccc(COC(=O)C2(c3ccc(Cl)c(Cl)c3)CCN(C)CC2)cc1
Ki (Transporter): 300 nM
Ki [1]: 2790 nM
Ki [2]: 1.7 nM

CCOC(=O)C1(c2ccc(-c3ccccc3)cc2)CCNCC1
Ki [1]: 3210 nM
Ki [2]: 3.3 nM

Fc1ccc([C@@H]2CCNC[C@H]2COc2ccc3c(c2)OCO3)cc1 [PAROXETINE HYDROCHLORIDE]
Ki (Transporter): 59 nM

O=C(OCc1ccccc1)C1(c2ccc(-c3ccccc3)cc2)CCNCC1
Ki [1]: 1110 nM
Ki [2]: 2 nM

CCOC(=O)C1(c2ccc3ccccc3c2)CCNCC1
Ki [1]: 710 nM
Ki [2]: 14.1 nM

O=C(OCc1ccc(C(F)(F)F)cc1)C1(c2ccc(Cl)c(Cl)c2)CCNCC1
Ki (Transporter): 7900 nM
Ki [1]: 2240 nM
Ki [2]: 46.7 nM

CN1CCC(C(=O)OCc2ccc3ccccc3c2)(c2ccc(Cl)c(Cl)c2)CC1
Ki (Transporter): 2550 nM
Ki [1]: 4910 nM
Ki [2]: 9.9 nM

CN1CCC(C(=O)OCc2ccc([N+](=O)[O-])cc2)(c2ccc(Cl)c(Cl)c2)CC1
Ki (Transporter): 333 nM
Ki [1]: 1530 nM
Ki [2]: 1 nM

CN1CCC(C(=O)OCc2ccc(-c3ccccc3)cc2)(c2ccc(Cl)c(Cl)c2)CC1
Ki [1]: 5630 nM
Ki [2]: 10.9 nM

CCOC(=O)C1(c2ccc(I)cc2)CCNCC1
Ki [1]: 3500 nM
Ki [2]: 2.5 nM

O=C(OCc1ccc(Cl)c(Cl)c1)C1(c2ccc(I)cc2)CCNCC1
Ki (Transporter): 6060 nM
Ki [1]: 4340 nM
Ki [2]: 5.9 nM

CN1CCC(C(=O)OCc2ccccc2)(c2ccc(Cl)c(Cl)c2)CC1
Ki (Transporter): 901 nM
Ki [1]: 2970 nM
Ki [2]: 3.9 nM

COc1ccc(COC(=O)C2(c3ccc(Cl)c(Cl)c3)CCNCC2)cc1
Ki (Transporter): 3130 nM
Ki [1]: 1260 nM
Ki [2]: 10.2 nM

CN1CCC(C(=O)OCc2ccc(I)cc2)(c2ccc(Cl)c(Cl)c2)CC1
Ki [1]: 3470 nM
Ki [2]: 13.2 nM

CCOC(=O)C1(c2ccc3ccccc3c2)CCN(C)CC1
Ki (Transporter): 71000 nM

O=C(OCc1ccc([N+](=O)[O-])cc1)C1(c2ccc3ccccc3c2)CCNCC1
Ki (Transporter): 937 nM
Ki [1]: 732 nM
Ki [2]: 2 nM

CN1CCC(C(=O)OCc2ccc(Cl)c(Cl)c2)(c2ccc(Cl)c(Cl)c2)CC1
Ki [1]: 5230 nM
Ki [2]: 4.3 nM

O=C(OCc1ccc([N+](=O)[O-])cc1)C1(c2ccc(I)cc2)CCNCC1
Ki (Transporter): 2070 nM
Ki [1]: 1780 nM
Ki [2]: 5.9 nM

CCOC(=O)C1(c2ccc(I)cc2)CCN(C)CC1
Ki (Transporter): 519000 nM

CN1CCC(C(=O)OCc2ccc(Br)cc2)(c2ccc(Cl)c(Cl)c2)CC1
Ki (Transporter): 580 nM
Ki [1]: 2560 nM
Ki [2]: 7 nM
